Consider seven substances from patent publication US7361349B2, “Peptide, immunogenic composition and vaccine or medical preparation, a method to immunize animals against the hormone LHRH, and analogs of the LHRH tandem repeat peptide and their use as vaccine” (Pepscan Systems B.V., priority 1996, dated 2008).

Entries after “also recorded” stand apart in the source; their conditions may differ. Non-standard residues stand in square brackets, D forms with d. pGlu = O=C1CC[C@@H](C(=O)O)N1

One assay deals with GnRH-II. Put plainly: GnRH antibody binding competitive radioimmunoassay, competition by GnRH-II. On the set-up: species or system pig. The following applies: for sera with reduced binding to iodinated GnRH after competition by GnRH-II / binding of antibodies to GnRH-II: 10 wpv sera; for sera with reduced binding to iodinated GnRH after competition by GnRH-II / animals whose 10 wpv sera did not bind to GnRH-II: 1/10000 dilution; for sera with reduced binding to iodinated GnRH after competition by GnRH-II: share of sera per treatment; for binding of antibodies to GnRH-II: substantially all animals of the group; for animals whose 10 wpv sera did not bind to GnRH-II: 25 pmol peptide per well. How it is done:
To determine whether antibodies raised by the GnRH vaccines according to the present invention discriminated between GnRH-I and GnRH-II, a GnRH antibody binding assay was performed in order to determine whether antibodies rose against GnRH-I-tandem dimer peptide or its alanine replacement analogs bind to GnRH-II or lack binding to GnRH-II. Serum dilutions were preincubated with either GnRH-I, GnRH-II, a control peptide, or no peptide. Next, iodinated GnRH-I was added to compete with the preincubated peptides for binding to the antibodies.
A GnRH antibody binding competitive radioimmunoassay was performed in order to determine whether antibodies raised against G6k-GnRH-tandem (SEQ ID NO: 9) dimer peptide or its alanine replacement analogs bind to GnRH-II or lack binding to GnRH-II. Serum dilutions were preincubated with either GnRH-I, GnRH-II, a control peptide or no peptide. Next, iodinated GnRH-I was added to compete with the preincubated peptides for binding to the antibodies.
This procedure was performed for serum collected before and after booster immunization, as specificity of the antibodies may increase after booster immunization due to antibody maturation.
(§1) Serum samples of the 10 wpv bleeding (3 weeks post booster immunization) were diluted 1/10000 in PBS with 0.4% BSA (dilution buffer). Fifty μl serum dilution was put in microwell plates and 25 μl peptide solution (0, 0.25, 2.5 or 25 pmol peptide in dilution buffer per well) was added. This mixture was allowed to incubate for 24 hours at 4° C. The next day, 25 μl iodinated GnRH (approximately 13000 cpm) was added and after overnight storage (4° C.) unbound peptide was separated from bound peptide with charcoal. After centrifugation, supernatant was separated, counted and the percentage of iodinated GnRH bound to the antibodies was calculated.
Antibodies collected after the first immunization (7 wpv) were tested in a 1/2000 serum dilution and only one peptide dilution was tested (25 pmol/well).

The subject of the next assay is ^125I-GnRH. In words: GnRH antibodies: binding of pig antisera to 125I-GnRH. The following applies: for GnRH binding (average): Table 3, GnRH antibody binding percentage of 125I-GnRH, average per treatment. It counts as in vivo. How it is done: Antibodies to GnRH were determined as described by Meloen et al. (Vaccine 12, 741-746 (1994)). Serial dilutions of the pig antisera were allowed to bind to ^125I-GnRH. Titers are expressed as percentage binding of ^125I-GnRH at a given serum dilution.
as §1

Assay [1] concerns peptides used for immunization. Put plainly: Peptide antibodies ELISA of antisera. Format: in vivo, pig. The following applies: for anti peptide titer at 10 wpv: Table 3, mean titer against the peptide used for immunization. How it is done:
Antibodies to the peptides used for immunization were determined with an ELISA. Peptides were coated in the wells of a microtitreplate using glutardialdehyde (GDA). GDA was coated to the surface of the wells by incubation with 0.2% GDA in 0.1 M phosphate buffer (pH 5) for 4 hours at room temperature. Plates were rinsed 3 times for 10 minutes with 0.1 M phosphate buffer (pH 8). One microgram peptide in […] phosphate buffer (0.1 M, pH 8) was coated per well by incubating for 3 hours at 37° C. Plates were stored at −20° C. until used. Thawed plates were rinsed 3 times for 10 minutes with milli Q water containing 8.2 g NaCl, 1.15 g Na2HPO4.2H2O, 0.20 g NaH2PO4.2H2O and 5 ml of a 10% Tween 80 solution in water per liter water.
Serial serum dilutions of the antipeptide sera were allowed to react with the coated peptides for 1 hour at 25° C. After rinsing 3 times for 10 minutes, goat-anti-pig IgG coupled to horseradish peroxidase (Dako, Glastrup, Denmark) was introduced as second antibody for 1 hour and ABTS (Boehringer, Mannheim, Germany) (([…] (2 g/100 ml) in 10 ml substrate buffer to which […] H2O2 (3% solution)) was used as substrate. Absorption was measured at 405 nm.

In another assay the test system is Male piglets. Put plainly: Immunocastration of pigs: testis size and testis weight after immunization. The following applies: for testis weight (g) (median (range)) / number responders/total number: Table 2; for testis weight (g) (median (range)): after slaughter at 13 wpv; for number responders/total number: effectiveness according to testis weight; for testis weight (median range): Table 3; for animals that did not respond to the immunization: number of animals per group of 7. Format: in vivo, pig. The procedure:
Male piglets, approximately 10 weeks of age, were involved in this experiment. The crossbred piglets were housed in half-slatted pens and were given ad libitum access to feed and water.
The piglets were randomly assigned to the treatments, 6 or 7 piglets per treatment. All animals were injected with 2 ml emulsion containing the dimerized tandem GnRH conjugates (i.e., […] peptide) or an emulsion without antigen. Injections were administered intramuscularly in the neck at the start of the experiment (day 0) and 7 weeks later (7 wpv). Thirteen weeks after initial immunization (13 wpv) all animals were slaughtered.
Animals were weighed at day 0 and 7 and 13 wpv. Testis sizes were determined by measuring testis length with Vernier calipers at day 0, and 7, 10 and 13 weeks thereafter. Testis sizes were recorded as average of both testicles.
After slaughter testes were removed, dissected free of epididymes and weighed. Testes weights were recorded as average of both testicles.

In a further assay the test system is testosterone. In words: Testosterone levels in serum (Coat-a-Count kit). Format: in vivo, pig. The following applies: for testosterone (pmol/ml) at 13 wpv median (range): Table 3, serum, n.d. = not detectable; for testosterone level (in words): after immunization. How it is done: Blood samples were taken via puncture of the vena jugularis on the same days testis sizes were measured, and also 4 weeks after the initial immunization. Blood samples were kept overnight at 4° C. and the next day serum was obtained by centrifugation (1500 g, 15 min). Serum samples were stored at −20° C. until assayed.
Testosterone levels in serum were determined using a Coat-a-Count kit purchased from DPC laboratories, Los Angeles, Calif.

Setting [2] is: 7 wpv (before booster), 1/2000 dilution, 25 pmol/well.

“G10A-G6k-GnRH-tandem ([pGlu]HWSY[dK]LRPAQHWSY[dK]LRPAC-NH2; also: dimerized through Cys 21)”: in the assay on GnRH-II, the “sera with reduced binding to iodinated GnRH after competition by GnRH-II” value (from here on “sera with reduced binding”) is given as “all sera”. Also, in the assay on ^125I-GnRH, the “GnRH binding (average)” value is reported as 17.6%. Moreover, the “anti peptide titer at 10 wpv” value in assay [1] was 3.19. For the same substance, in the assay with Male piglets, the “testes weight (in words)” value was “low testes weight”, the “testis weight (g) (median (range))” value is listed as 14 (11-39) g, the number responders/total number was 7/7 and the “testis weight (median range)” value was 14 (11-39). In the assay on testosterone, the “testosterone (pmol/ml) at 13 wpv median (range)” value (“testosterone (pmol/ml)” below) is “n.d. (n.d.)” and the “testosterone level (in words)” value was “undetectable testosterone levels; also recorded: low testosterone level”.
For “L7A-G6k-GnRH-tandem ([pGlu]HWSY[dK]ARPGQHWSY[dK]ARPGC-NH2; also: dimer via Cys21)”, the “sera with reduced binding” value with GnRH-II is listed as “half of the sera”. In the assay with ^125I-GnRH, the “GnRH binding (average)” value is on record as 17.6%. Moreover, the “anti peptide titer at 10 wpv” value in assay [1] is listed as 3.52. For the same substance, in the assay with Male piglets, the “testis weight (g) (median (range))” value is listed as 20 (12-195) g, the number responders/total number is 6/7, the “testis weight (median range)” value is reported as 20 (12-195) and the “animals that did not respond to the immunization” value (“animals that did not respond” below) is given as 1.
As to “P9A-G6k-GnRH-tandem-dimer conjugate ([pGlu]HWSY[dK]LRAGQHWSY[dK]LRAGC-NH2; also: dimerized through Cys 21, ovalbumin conjugate)”, in the assay on GnRH-II, the “sera with reduced binding” value is “most of the sera”. Besides, the “GnRH binding (average)” value with ^125I-GnRH is on record as 15.8%. In assay [1], the “antibody titers against the peptides used for immunization (in words)” value was “lower than peptide antibody titers of other treatments” and the “anti peptide titer at 10 wpv” value was 2.62. Besides, in the assay with Male piglets, the “testis weight (g) (median (range))” value is 23 (8-300) g, the number responders/total number was 6/7, the “testis weight (median range)” value is 23 (8-300) and the “animals that did not respond” value is 1.
For the substance “R8A-G6k-GnRH-tandem ([pGlu]HWSY[dK]LAPGQHWSY[dK]LAPGC-NH2; also: dimer via Cys21)”, the “sera with reduced binding” value with GnRH-II is on record as “all sera”. Further, in the assay with ^125I-GnRH, the “GnRH binding (average)” value is 17.7%. For the same substance, the “anti peptide titer at 10 wpv” value in assay [1] was 3.34. Further, in the assay with Male piglets, the “testes weight (in words)” value is “low testes weight”, the “testis weight (g) (median (range))” value is 15 (10-19) g, the number responders/total number was 7/7 and the “testis weight (median range)” value was 15 (10-19). Further, in the assay on testosterone, the “testosterone (pmol/ml)” value is on record as “n.d. (n.d.)” and the “testosterone level (in words)” value is on record as “undetectable testosterone levels; also recorded: low testosterone level”.
With “S4A-G6k-GnRH-tandem ([pGlu]HWAY[dK]LRPGQHWAY[dK]LRPGC-NH2; also: dimer via Cys21)”, the “animals whose prebooster sera showed binding to GnRH-II” value in the assay with GnRH-II (setting [2]) is “all animals”. In the assay on GnRH-II, the “binding of antibodies to GnRH-II” value is listed as “completely lacked binding to GnRH-II” and the “animals whose 10 wpv sera did not bind to GnRH-II” value is 6 out of 7. The “GnRH binding (average)” value in the assay on ^125I-GnRH turned out to be 16.9%. For the same substance, the “anti peptide titer at 10 wpv” value in assay [1] was 3.19. Also, in the assay on Male piglets, the “testes weight (in words)” value is “effective in terms of low testes weights; also recorded: low testes weight”, the “testis weight (g) (median (range))” value is given as 36 (10-69) g, the number responders/total number is given as 7/7 and the “testis weight (median range)” value is reported as 36 (10-69). For the same substance, in the assay on testosterone, the “testosterone (pmol/ml)” value was “n.d. (n.d.)” and the “testosterone level (in words)” value was “undetectable testosterone levels; also recorded: low testosterone level”.
For “Y5A-G6k-GnRH-tandem ([pGlu]HWSA[dK]LRPGQHWSA[dK]LRPGC-NH2; also: dimer via Cys21)”, the “sera with reduced binding” value in the assay with GnRH-II is given as “half of the sera”. Further, the “GnRH binding (average)” value in the assay on ^125I-GnRH amounted to 11.3%. Besides, the “anti peptide titer at 10 wpv” value in assay [1] is given as 2.92. Further, in the assay with Male piglets, the “testis weight (g) (median (range))” value is reported as 44 (15-235) g, the number responders/total number is 5/7, the “testis weight (median range)” value is recorded as 44 (15-235) and the “animals that did not respond” value was determined as 2.
Consider “pE1A-G6k-GnRH-tandem-dimer OVA conjugate (Ac-AHWSY[dK]LRPGAHWSY[dK]LRPGC-NH2; also: dimerized through Cys 21, ovalbumin conjugate)”, for which, in the assay with GnRH-II (setting [2]), the “animals whose prebooster sera showed binding to GnRH-II” value is listed as 4 out of 7 and the “prebooster sera that did not recognize GnRH-II” value was “Two”. For the same substance, in the assay with GnRH-II, the “binding of antibodies to GnRH-II” value is listed as “completely lacked binding to GnRH-II” and the “animals whose 10 wpv sera did not bind to GnRH-II” value is 6 out of 7. The “prebooster sera with no binding to iodinated GnRH” value with ^125I-GnRH (7 wpv (before booster), 1/2000 dilution) is given as “one”. Moreover, the “GnRH binding (average)” value in the assay on ^125I-GnRH was determined as 15.7%. Also, the “anti peptide titer at 10 wpv” value in assay [1] is recorded as 3.24. In the assay with Male piglets, the “testes weight (in words)” value is “effective in terms of low testes weights”, the “testis weight (g) (median (range))” value is given as 36 (16-65) g, the number responders/total number is 7/7 and the “testis weight (median range)” value is 36 (16-65).
